{"source": "patent US7781594B2", "about": "“5-(4-methanesulfonyl-phenyl)-thiazole derivatives for the treatment of acute and chronic inflammatory diseases” (Faes Farma, S.A., priority 2008, dated 2010)", "tested_on": "IFN-gamma", "test": "IFN-gamma production by PBMC from patients with rheumatoid arthritis, CBA", "format": "cell-based, human", "method": "CBA protocol was followed according to the manufacturer's instructions. The election of microparticles was performed following the summary of FIG. 1.\nThe acquisition on samples was performed with the BD FACS Array Bioanalyser System (FACSArray, Becton Dickinson, San José, Calif., USA) and the analysis of the results was completed with the software FCAP Array (Becton Dickinson) in a PC computer.\nBriefly, the experimental protocol consisted of a plate pre-washing out with Wash Buffer. After decantation, the mixture of capture microparticles was re-suspended in the vortex. Standards and samples were added in the adequate dilution. After permanent stirring incubation during 1 h, the PE detection reagent was added and incubated again during 2 h at room temperature. […]\nPBMC (5×10^4 cells/well) from 7 patients with rheumatoid arthritis were cultured in duplicate 200 μl of complete medium supplement with the highest solvent concentration (10^−6 M), and 10^−6 M, 10^−7 M and 10^−8 M of compound 12, in the presence and absence either of LPS (10 μg/ml), or anti-CD3 (12.5 ng/ml)+anti-CD28 (⅓×10^5), during 24 hours. Culture supernatants were frozen at −20° C. and IFN-gamma concentration was assessed by BD FACS Array Bioanalyser by using CBA Flex Set, specific to determine IFN-gamma concentration, following the manufacturer instructions.", "data": [{"smiles": "Cc1nc(OC2CCCC2)c(-c2ccc(S(C)(=O)=O)cc2)s1", "note": "[Compound 12, 4-cyclopentyloxy-5-(4-methylsulfonyl-phenyl)-2-methyl-thiazole]", "values": [{"measurement": "Effect on IFN-gamma production by PBMC stimulated with anti-CD3 and anti-CD28", "setting": "patients with rheumatoid arthritis, 10^−6 M, 10^−7 M and 10^−8 M, p<0.05, FIG. 6", "value": "significantly lowered"}, {"measurement": "Effect on IFN-gamma secretion by PBMC, spontaneous or LPS-induced", "setting": "printed 'from healthy volunteers' in the paragraph on patients with rheumatoid arthritis", "value": "modified neither the spontaneous IFN-gamma secretion nor the LPS-induced"}]}]}
